# Reference: PubChem BioAssay AID624129 (Sanford-Burnham Center for Chemical Genomics, 2012)
# Active and inactive are the calls of the source. How the calls were made is not given here.
# Columns and labels:
# Assay in all cases: potency against CXCR6 with APJ panel – cell-based, beta-arrestin, DiscoveRx, uHTS hits, dose response (AID 624129)
# [1] = biological target: C-X-C chemokine receptor type 6 (Homo sapiens) (UniProt O00574); conditions: CXCR6 beta-arrestin (DiscoveRx) antagonist cell assay; for inhibition: CXCR6, run 1, dose range 2, at 80 µM (top of the series)
# [2] = biological target: C-C chemokine receptor type 6 (Homo sapiens) (UniProt P51684); conditions: CXCR6 beta-arrestin (DiscoveRx) antagonist cell assay
# [3] = biological target: Apelin receptor (Homo sapiens) (UniProt P35414); conditions: CXCR6 beta-arrestin (DiscoveRx) antagonist cell assay, APJ
# [4] = biological target: Beta-galactosidase (Escherichia coli) (UniProt Q8VNN2); conditions: CXCR6 beta-arrestin (DiscoveRx) antagonist cell assay, b-galactosidase
# [5] = CXCR6, dose range 1, mean IC50 across replicates
# [6] = CCR6, dose range 1, mean IC50 across replicates
# [7] = dose range 1, mean IC50 across replicates
# Beta-galactosidase (Escherichia coli), sequence (Q8VNN2 whole entry, looked up): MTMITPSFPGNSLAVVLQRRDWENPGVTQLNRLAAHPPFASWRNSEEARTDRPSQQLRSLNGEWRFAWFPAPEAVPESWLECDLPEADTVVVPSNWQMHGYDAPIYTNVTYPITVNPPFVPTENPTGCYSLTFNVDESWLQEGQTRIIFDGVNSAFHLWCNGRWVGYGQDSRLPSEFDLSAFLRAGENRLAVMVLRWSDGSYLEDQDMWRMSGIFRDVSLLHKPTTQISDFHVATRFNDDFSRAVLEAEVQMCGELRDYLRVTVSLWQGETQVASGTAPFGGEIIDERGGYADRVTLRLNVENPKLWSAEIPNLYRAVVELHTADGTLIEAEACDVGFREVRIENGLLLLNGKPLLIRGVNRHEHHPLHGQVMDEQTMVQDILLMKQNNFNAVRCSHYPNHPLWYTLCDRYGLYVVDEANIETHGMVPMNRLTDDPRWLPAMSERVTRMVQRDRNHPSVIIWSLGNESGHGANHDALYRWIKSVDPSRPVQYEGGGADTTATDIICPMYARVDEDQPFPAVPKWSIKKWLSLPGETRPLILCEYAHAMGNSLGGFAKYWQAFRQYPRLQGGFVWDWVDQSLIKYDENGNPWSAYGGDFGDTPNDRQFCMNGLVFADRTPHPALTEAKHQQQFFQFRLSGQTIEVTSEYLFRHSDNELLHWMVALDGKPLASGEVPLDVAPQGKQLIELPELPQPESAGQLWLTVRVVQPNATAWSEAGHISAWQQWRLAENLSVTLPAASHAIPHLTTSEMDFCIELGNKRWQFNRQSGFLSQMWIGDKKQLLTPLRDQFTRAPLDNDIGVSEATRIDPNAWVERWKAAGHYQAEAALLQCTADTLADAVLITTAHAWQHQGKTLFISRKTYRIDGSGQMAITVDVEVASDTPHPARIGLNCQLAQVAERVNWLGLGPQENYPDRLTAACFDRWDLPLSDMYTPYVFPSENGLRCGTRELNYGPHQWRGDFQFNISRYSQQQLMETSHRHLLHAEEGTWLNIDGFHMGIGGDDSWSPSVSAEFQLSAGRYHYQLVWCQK
# C-X-C chemokine receptor type 6 (Homo sapiens), sequence (O00574 whole entry, looked up): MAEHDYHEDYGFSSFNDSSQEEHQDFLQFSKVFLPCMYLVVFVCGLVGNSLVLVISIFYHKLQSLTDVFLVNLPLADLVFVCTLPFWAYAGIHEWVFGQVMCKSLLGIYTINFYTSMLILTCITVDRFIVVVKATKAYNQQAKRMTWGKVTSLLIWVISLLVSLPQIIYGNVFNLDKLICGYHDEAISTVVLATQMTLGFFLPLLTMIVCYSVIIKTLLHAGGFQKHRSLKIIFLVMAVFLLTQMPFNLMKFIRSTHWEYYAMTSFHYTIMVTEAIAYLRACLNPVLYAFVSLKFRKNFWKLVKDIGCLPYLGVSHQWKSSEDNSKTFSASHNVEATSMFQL
SMILES,"IC50 ([1]; CXCR6, dose range 1)","IC50 [1, 5]","IC50 ([1]; CXCR6, run 1, dose range 2)","IC50 ([1]; CXCR6, run 2, dose range 1)","IC50 ([1]; CXCR6, run 2, dose range 2)","IC50 ([2]; CCR6, dose range 1)","IC50 [2, 6]","IC50 ([2]; CCR6, run 2, dose range 1)",IC50 ([3]; dose range 1),"IC50 [3, 7]","IC50 ([3]; run 2, dose range 1)","IC50 ([3]; run 3, dose range 1)",IC50 ([4]; dose range 1),"IC50 [4, 7]",inhibition [1]
Cc1cccnc1Nc1nc(-c2ccccn2)cs1,1.13 µM,0.904 µM,0.837 µM,0.861 µM,0.788 µM,0.955 µM,1.22 µM,1.48 µM,1.2 µM,1.38 µM,1.82 µM,1.13 µM,> 80 µM (inactive),> 80 µM,
CCc1ccccc1OCC(=O)Nc1nc(-c2cccnc2)cs1,inactive,11 µM,7.82 µM,16.8 µM,8.73 µM,6.24 µM,6.97 µM,7.7 µM,8.5 µM,12.5 µM,12 µM,17 µM,> 80 µM (inactive),> 80 µM,
COC(=O)c1ccc2c(c1)C(C)(C)C(/C=C/c1ccc(OC)c(OC)c1OC)=[N+]2C,11.4 µM,9.1 µM,7.35 µM,10.4 µM,7.23 µM,7.5 µM,9.27 µM,11 µM,15.1 µM,15 µM,14.3 µM,15.8 µM,> 80 µM (inactive),> 80 µM,
CCS(=O)(=O)c1ncc(Cl)c(C(=O)Nc2ccc(S(=O)(=O)N(C)c3ccccc3)cc2)n1,6.29 µM,6.61 µM,6.87 µM,6.54 µM,6.76 µM,4.87 µM,4.8 µM,4.74 µM,5.02 µM,5.55 µM,5.84 µM,5.8 µM,> 80 µM (inactive),> 80 µM,
C=C1C(=O)c2sccc2C(c2ccc(OC)c(OC)c2)C1COC(C)=O (configuration not stated),6.54 µM,6.19 µM,5.73 µM,6.78 µM,5.7 µM,4.58 µM,5.3 µM,6.02 µM,7.28 µM,6.69 µM,6.03 µM,6.75 µM,> 80 µM (inactive),> 80 µM,
Cn1nc([N+](=O)[O-])nc1Sc1cccc2cccnc12,inactive,12.5 µM,11.3 µM,14.2 µM,9.55 µM,12.1 µM,13.7 µM,15.2 µM,11 µM,11.9 µM,11.4 µM,13.1 µM,> 80 µM (inactive),> 80 µM,
CCn1c(Cl)c(C=O)s/c1=N\S(=O)(=O)c1ccccc1,4.78 µM,4.9 µM,5.1 µM,5.14 µM,4.58 µM,3.16 µM,3.63 µM,4.09 µM,6.85 µM,5.99 µM,5.55 µM,5.57 µM,> 80 µM (inactive),> 80 µM,
COc1ccc(C(=O)/C=C/C(=O)N(CC(=O)NC2CCCCC2)Cc2ccccc2)c(O)c1,> 80 µM (inactive),> 80 µM,,> 80 µM,,,> 80 µM,> 80 µM,,> 80 µM,> 80 µM,> 80 µM,> 80 µM (inactive),> 80 µM,9.34%
CC(C)(C)c1ccc(-n2nc(C#N)c(Cl)cc2=O)cc1,11.5 µM,8.28 µM,5.14 µM,8.56 µM,7.92 µM,3.8 µM,5.45 µM,7.1 µM,7.12 µM,7.86 µM,5.54 µM,10.9 µM,> 80 µM (inactive),> 80 µM,
CCC(C)c1ccc(O)c(NC(=S)NC(=O)c2cccnc2)c1 (configuration not stated),inactive,12.9 µM,8.01 µM,20.2 µM,12.9 µM,7.67 µM,12 µM,16.3 µM,8.9 µM,11.3 µM,14.6 µM,10.5 µM,inactive,56 µM,
COc1ccc(NC(=O)/C(Cl)=C(/Cl)S(=O)Cc2ccccc2)cn1 (configuration not stated),6.13 µM,6.54 µM,6.75 µM,6.11 µM,7.15 µM,5.44 µM,5.05 µM,4.67 µM,10.7 µM,22.5 µM,7.69 µM,49 µM,> 80 µM (inactive),> 80 µM,
Cc1cccc(C(=O)Nc2ccc(C(=O)/C=C/c3ccncc3)cc2)c1,> 80 µM (inactive),> 80 µM,,> 80 µM,,,> 80 µM,> 80 µM,,> 80 µM,> 80 µM,> 80 µM,> 80 µM (inactive),> 80 µM,-26.4%

# Continued, values first:
"IC50 ([1]; CXCR6, dose range 1)","IC50 [1, 5]","IC50 ([1]; CXCR6, run 1, dose range 2)","IC50 ([1]; CXCR6, run 2, dose range 1)","IC50 ([1]; CXCR6, run 2, dose range 2)","IC50 ([2]; CCR6, dose range 1)","IC50 [2, 6]","IC50 ([2]; CCR6, run 2, dose range 1)",IC50 ([3]; dose range 1),"IC50 [3, 7]","IC50 ([3]; run 2, dose range 1)","IC50 ([3]; run 3, dose range 1)",IC50 ([4]; dose range 1),"IC50 [4, 7]",inhibition [1],SMILES
inactive,12.6 µM,,10.2 µM,,10.3 µM,11.1 µM,11.9 µM,17.2 µM,16.8 µM,15.2 µM,17.9 µM,> 80 µM (inactive),> 80 µM,124%,CCC(=O)OCOc1ccc(/C=C2/CCC(CN(C)C)C2=O)cc1 (configuration not stated)
6.32 µM,5.47 µM,3.12 µM,8.63 µM,3.82 µM,5.29 µM,6.51 µM,7.72 µM,6.75 µM,7.71 µM,9.69 µM,6.7 µM,> 80 µM (inactive),> 80 µM,,Cc1ccsc1/C=C/c1ccc2cccc(O)c2n1
10.2 µM,10.8 µM,8.79 µM,12.2 µM,11.9 µM,7.57 µM,7.23 µM,6.88 µM,13.1 µM,12.2 µM,9.91 µM,13.7 µM,> 80 µM (inactive),> 80 µM,,C=CS(=O)(=O)c1ccc(Oc2ccc(S(=O)(=O)C=C)cc2)cc1
inactive,16.3 µM,,20 µM,,11.2 µM,17.2 µM,23.1 µM,13.3 µM,25.6 µM,27.9 µM,35.5 µM,> 80 µM (inactive),> 80 µM,142%,CC(C)(C)c1ccc(CN2N=Nc3ccccc3S2(=O)=O)cc1
4.99 µM,5.43 µM,,5.86 µM,,3.66 µM,2.37 µM,1.07 µM,3.71 µM,3.68 µM,> 80 µM,3.66 µM,> 80 µM (inactive),> 80 µM,53%,CN(C)c1nc(=NCc2cccs2)ss1
inactive,12.6 µM,9.33 µM,13.7 µM,12 µM,6.31 µM,9.54 µM,12.8 µM,7.86 µM,7.23 µM,7.26 µM,6.56 µM,> 80 µM (inactive),> 80 µM,,COc1cccc(-n2nc(C#N)c(Cl)cc2=O)c1
1.78 µM,2.71 µM,3.01 µM,3.41 µM,2.65 µM,1.62 µM,1.74 µM,1.85 µM,6.33 µM,8.66 µM,4.41 µM,15.2 µM,35 µM,35 µM,,O=[N+]([O-])c1c(Nc2ccc(O)cc2)cc(Cl)c2nonc12
inactive,11.2 µM,0.963 µM,36.3 µM,2.7 µM,3.9 µM,5.09 µM,6.27 µM,inactive,60 µM,62.7 µM,75.9 µM,> 80 µM (inactive),> 80 µM,,CC1(C)CC(=O)C(C=Nc2ccc(C(=O)c3ccccc3)cc2N=CC2=C(O)CC(C)(C)CC2=O)=C(O)C1
inactive,14.3 µM,,13.5 µM,,8.25 µM,8.81 µM,9.37 µM,9.5 µM,11.5 µM,11.7 µM,13.2 µM,> 80 µM (inactive),> 80 µM,118%,O=[N+]([O-])c1c(NCCCO)cc(Sc2nc3ccccc3s2)c2nonc12
6.41 µM,6.79 µM,,7.16 µM,,4.28 µM,3.98 µM,3.68 µM,11.3 µM,10.3 µM,8.87 µM,10.8 µM,32.8 µM,32.8 µM,146%,Cc1ccc(OCCn2c(NC(=O)c3ccco3)nc3ccccc32)cc1
